pIC50, pKi: −log10 of the molar value.

Data on one molecule can be found in ChEMBL document CHEMBL4321827, “Development and Therapeutic Potential of Selenazo Compounds” (J Med Chem, 2020).

One experiment has as its target Histone deacetylase 5 (Homo sapiens, UniProt Q9UQL6). In words: Inhibition of human recombinant HDAC5 using acetyl-Lys(trifluoroacetyl)-AMC substrate by fluorescence based assay.
The target in experiment [1] is T1, Protein deacetylase HDAC6 (Homo sapiens, UniProt Q9UBN7).
T1 sequence (Q9UBN7 whole entry): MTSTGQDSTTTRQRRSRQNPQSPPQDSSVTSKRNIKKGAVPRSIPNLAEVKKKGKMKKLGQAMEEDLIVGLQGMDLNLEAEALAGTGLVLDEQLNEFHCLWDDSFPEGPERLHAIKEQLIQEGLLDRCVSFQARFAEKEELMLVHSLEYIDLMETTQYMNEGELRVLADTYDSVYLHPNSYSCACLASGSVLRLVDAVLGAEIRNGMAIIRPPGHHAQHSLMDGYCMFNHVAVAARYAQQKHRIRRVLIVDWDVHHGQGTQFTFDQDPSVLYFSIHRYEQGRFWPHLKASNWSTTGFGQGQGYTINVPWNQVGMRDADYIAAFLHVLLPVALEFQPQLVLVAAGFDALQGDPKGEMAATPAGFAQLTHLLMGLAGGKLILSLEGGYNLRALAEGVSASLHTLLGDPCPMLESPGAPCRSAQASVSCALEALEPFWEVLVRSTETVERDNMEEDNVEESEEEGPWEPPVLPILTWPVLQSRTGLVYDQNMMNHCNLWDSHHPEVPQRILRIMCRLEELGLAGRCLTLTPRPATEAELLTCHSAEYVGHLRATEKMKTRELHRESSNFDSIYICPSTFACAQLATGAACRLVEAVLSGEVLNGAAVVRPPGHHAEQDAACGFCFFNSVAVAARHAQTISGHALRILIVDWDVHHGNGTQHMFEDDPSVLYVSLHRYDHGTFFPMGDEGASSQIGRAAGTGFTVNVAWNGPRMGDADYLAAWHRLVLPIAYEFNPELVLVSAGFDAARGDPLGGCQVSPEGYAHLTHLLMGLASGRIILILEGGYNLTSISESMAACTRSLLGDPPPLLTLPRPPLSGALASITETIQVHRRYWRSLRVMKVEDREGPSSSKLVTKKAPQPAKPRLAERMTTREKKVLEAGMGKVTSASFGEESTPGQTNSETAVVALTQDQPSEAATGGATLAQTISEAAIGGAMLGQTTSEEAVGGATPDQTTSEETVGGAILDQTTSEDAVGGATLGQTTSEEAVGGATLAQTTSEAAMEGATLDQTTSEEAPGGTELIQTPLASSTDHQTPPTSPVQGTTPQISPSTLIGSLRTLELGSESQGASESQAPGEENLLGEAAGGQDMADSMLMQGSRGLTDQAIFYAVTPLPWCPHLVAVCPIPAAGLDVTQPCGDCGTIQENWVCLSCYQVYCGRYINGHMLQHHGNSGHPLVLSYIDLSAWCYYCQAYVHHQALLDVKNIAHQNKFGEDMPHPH
In words: Inhibition of human recombinant HDAC6 using RHKKAc-AMC substrate by fluorescence based assay.

A further experiment concerns the target Histone deacetylase 9 (Homo sapiens, UniProt Q9UKV0). The experiment in a line: Inhibition of human recombinant HDAC9 using acetyl-Lys(trifluoroacetyl)-AMC substrate by fluorescence based assay.
The species entered for the next experiment is Rattus norvegicus. In words: Effect on SOD activity in brain of rat with ischemia/reperfusion injury assessed as enzyme activity per mg protein. Type of experiment: functional.
The nature of experiment [2]: Inhibition of inositol monophosphatase (unknown origin). Further details: species or system Homo sapiens.
A short description of experiment [3]: Inhibition of Bacillus anthracis TrxR.
Experiment [4] in a line: Inhibition of Candida albicans H+-ATPase.
Experiment [5] in a line: Inhibition of Aspergillus fumigatus TrxR.
For the next experiment, the system named is Cryptosporidium parvum. The experiment in a line: Substrate activity at Cryptosporidium parvum glucose 6-phosphate isomerase.

Sequence of Histone deacetylase 9 (Q9UKV0 whole entry, the tested form may be a part): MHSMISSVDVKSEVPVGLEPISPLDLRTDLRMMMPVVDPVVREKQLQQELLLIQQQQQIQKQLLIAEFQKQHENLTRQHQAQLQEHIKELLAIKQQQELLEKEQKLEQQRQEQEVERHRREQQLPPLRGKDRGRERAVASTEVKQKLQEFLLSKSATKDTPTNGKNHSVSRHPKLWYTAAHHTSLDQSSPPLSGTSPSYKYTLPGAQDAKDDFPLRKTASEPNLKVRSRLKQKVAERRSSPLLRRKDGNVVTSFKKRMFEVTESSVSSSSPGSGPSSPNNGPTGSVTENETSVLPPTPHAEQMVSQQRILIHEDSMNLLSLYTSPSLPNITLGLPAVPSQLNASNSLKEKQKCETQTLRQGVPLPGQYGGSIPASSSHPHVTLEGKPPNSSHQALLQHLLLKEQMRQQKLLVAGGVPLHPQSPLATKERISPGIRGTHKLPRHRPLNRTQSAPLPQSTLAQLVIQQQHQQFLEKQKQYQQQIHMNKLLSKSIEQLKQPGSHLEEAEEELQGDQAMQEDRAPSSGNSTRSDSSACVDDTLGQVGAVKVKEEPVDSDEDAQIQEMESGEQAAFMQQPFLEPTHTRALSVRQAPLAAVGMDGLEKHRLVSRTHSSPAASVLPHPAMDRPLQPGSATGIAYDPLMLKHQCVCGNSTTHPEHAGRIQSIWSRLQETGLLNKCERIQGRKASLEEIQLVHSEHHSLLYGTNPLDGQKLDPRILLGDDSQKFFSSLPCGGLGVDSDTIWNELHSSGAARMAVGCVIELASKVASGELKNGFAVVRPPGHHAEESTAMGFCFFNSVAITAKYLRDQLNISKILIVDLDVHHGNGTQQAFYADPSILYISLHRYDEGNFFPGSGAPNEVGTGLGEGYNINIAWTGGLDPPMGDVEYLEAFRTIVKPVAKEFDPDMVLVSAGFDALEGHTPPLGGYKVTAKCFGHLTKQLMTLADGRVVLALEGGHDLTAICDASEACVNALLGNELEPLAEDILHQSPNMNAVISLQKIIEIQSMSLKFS
Sequence of Histone deacetylase 5 (Q9UQL6 whole entry): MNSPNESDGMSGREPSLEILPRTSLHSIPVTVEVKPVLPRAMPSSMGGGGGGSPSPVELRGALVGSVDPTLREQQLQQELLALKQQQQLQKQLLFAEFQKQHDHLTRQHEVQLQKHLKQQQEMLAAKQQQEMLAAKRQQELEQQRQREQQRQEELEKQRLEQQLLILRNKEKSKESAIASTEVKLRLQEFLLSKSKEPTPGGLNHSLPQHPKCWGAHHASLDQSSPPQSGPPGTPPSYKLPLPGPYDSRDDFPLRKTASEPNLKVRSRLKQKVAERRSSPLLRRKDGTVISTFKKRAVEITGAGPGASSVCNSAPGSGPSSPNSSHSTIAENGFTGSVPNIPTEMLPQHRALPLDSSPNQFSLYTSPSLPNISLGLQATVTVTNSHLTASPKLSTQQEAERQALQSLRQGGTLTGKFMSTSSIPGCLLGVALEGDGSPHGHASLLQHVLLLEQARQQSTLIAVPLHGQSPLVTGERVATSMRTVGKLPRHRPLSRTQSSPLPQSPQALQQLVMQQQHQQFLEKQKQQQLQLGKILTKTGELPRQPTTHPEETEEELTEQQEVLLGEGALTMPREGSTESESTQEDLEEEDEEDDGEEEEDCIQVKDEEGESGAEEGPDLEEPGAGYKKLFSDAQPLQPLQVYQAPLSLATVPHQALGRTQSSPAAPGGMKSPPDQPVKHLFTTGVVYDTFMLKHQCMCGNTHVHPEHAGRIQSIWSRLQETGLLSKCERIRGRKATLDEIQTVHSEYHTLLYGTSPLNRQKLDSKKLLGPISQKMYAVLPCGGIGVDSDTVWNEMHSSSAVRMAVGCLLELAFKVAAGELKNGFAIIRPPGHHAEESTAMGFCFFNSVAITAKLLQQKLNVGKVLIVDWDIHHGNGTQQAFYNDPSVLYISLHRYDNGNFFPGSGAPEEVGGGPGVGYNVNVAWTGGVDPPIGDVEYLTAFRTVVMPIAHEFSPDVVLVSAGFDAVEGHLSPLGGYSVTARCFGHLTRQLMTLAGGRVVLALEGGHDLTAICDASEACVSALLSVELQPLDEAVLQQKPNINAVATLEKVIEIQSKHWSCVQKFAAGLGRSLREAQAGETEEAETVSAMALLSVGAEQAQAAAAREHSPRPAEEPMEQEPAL

Turning to `O=c1c2ccccc2[se]n1-c1ccccc1` [EBSELEN], the negative logarithm of the IC50 (pIC50) (as a rule, the IC50 on a negative log10 scale, so that one unit is a factor of ten) on Histone deacetylase 5 was 5.47; in [1] it was 5.16; on Histone deacetylase 9 it was 5.43; in experiment [2], 5.82; in [3] it was 6.00; in experiment [4] it was 5.41. Further, the Activity in the experiment filed under Rattus norvegicus amounted to 0.105 U. Besides, the pKi (as a rule, −log10 of the Ki, conventionally taken in molar units) in [5] is 6.66. Moreover, the Km (commonly the substrate concentration at which the rate is half of its maximum) in the experiment on Cryptosporidium parvum stood at 309 µM.
